Read-outs that look alike come from different tables or passages of the source. Blank lines part the entries; values can stand above or below the molecule they belong to.
Assays:
[1] = tested on: pcDNA-HEK293 cells; assay: Cytotoxicity / MDR reversal assay, pcDNA-HEK293; assay type: cell-based; settings: Homo sapiens
[2] = Cytotoxicity / MDR reversal assay, MDR19-HEK293; assay type: cell-based, human; settings: human, MDR19-HEK293 cells (ABCB1-transfected HEK293)
[3] = tested on: MDR19-HEK293 (ABCB1) cells; assay: Cytotoxicity / MDR reversal assay, MDR19-HEK293; assay type: cell-based, human; settings: for R.R of doxorubicin in the presence of the treatment: MDR19-HEK293 / pcDNA-HEK293
[4] = tested on: MRP1-HEK293 (ABCC1) cells; settings: for R.R of etoposide in the presence of the treatment: MRP1-HEK293 / pcDNA-HEK293
[5] = in vitro; settings: human, MRP1-HEK293 cells (ABCC1-transfected HEK293)
[6] = tested on: A375-G2 cells; assay: cells; assay type: cell-based, human; settings: for IC50: Homo sapiens, A-375
[7] = tested on: R482-HEK293 (ABCG2) cells; assay: in vitro; assay type: cell-based, human; settings: for R.R (relative resistance): IC50 R482-HEK293 / IC50 pcDNA-HEK293, drug alone
[8] = target: T1, ABCG2 (Homo sapiens, UniProt Q9UNQ0)
T1 sequence (Q9UNQ0 1-655): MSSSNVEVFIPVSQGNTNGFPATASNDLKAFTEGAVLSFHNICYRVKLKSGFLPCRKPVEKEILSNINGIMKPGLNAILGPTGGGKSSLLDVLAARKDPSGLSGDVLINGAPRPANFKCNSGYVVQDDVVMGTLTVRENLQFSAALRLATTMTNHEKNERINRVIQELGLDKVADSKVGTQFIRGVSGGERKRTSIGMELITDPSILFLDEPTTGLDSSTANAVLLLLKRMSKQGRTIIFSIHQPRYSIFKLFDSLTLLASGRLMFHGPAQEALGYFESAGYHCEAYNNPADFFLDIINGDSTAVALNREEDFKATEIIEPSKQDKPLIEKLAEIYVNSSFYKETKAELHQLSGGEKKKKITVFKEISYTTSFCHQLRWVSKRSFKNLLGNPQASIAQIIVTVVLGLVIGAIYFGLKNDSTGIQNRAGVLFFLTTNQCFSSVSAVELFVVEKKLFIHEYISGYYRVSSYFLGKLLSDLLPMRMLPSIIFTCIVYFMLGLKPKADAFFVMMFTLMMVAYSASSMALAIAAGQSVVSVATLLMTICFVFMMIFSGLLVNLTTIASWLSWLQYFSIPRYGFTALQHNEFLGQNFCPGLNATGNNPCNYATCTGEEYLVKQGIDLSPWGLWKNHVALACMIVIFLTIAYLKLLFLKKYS

[9] = tested on: BRAF(V600E) mutant A375 melanoma cells; assay: cells; assay type: cell-based, human
[10] = in vitro; assay type: cell-based, human; settings: human, R482-HEK293 cells (ABCG2-transfected HEK293)
[11] = tested on: KB-3-1 cells; assay: Cytotoxicity assay; assay type: cell-based; settings: Homo sapiens
[12] = tested on: CORL-23/P cells; assay: Cytotoxicity assay; assay type: cell-based; settings: Homo sapiens, COR-L23
[13] = tested on: MCF7 cells; assay: Cytotoxicity assay; assay type: cell-based; settings: Homo sapiens
[14] = tested on: S1 cells; assay: Cytotoxicity assay; assay type: cell-based; settings: Homo sapiens
[15] = tested on: Colo-205 cells; assay: Cytotoxicity assay; assay type: cell-based; settings: Homo sapiens
[16] = tested on: drug sensitive parental cells; assay: Fluorescent probe accumulation in drug sensitive parental cells; assay type: cell-based, human; settings: up to 50 µM
[17] = target: T2, ABCB1 (Homo sapiens, UniProt P08183); assay: Vi-sensitive ATPase activity of ABCB1; assay type: biochemical
T2 sequence (P08183 whole entry): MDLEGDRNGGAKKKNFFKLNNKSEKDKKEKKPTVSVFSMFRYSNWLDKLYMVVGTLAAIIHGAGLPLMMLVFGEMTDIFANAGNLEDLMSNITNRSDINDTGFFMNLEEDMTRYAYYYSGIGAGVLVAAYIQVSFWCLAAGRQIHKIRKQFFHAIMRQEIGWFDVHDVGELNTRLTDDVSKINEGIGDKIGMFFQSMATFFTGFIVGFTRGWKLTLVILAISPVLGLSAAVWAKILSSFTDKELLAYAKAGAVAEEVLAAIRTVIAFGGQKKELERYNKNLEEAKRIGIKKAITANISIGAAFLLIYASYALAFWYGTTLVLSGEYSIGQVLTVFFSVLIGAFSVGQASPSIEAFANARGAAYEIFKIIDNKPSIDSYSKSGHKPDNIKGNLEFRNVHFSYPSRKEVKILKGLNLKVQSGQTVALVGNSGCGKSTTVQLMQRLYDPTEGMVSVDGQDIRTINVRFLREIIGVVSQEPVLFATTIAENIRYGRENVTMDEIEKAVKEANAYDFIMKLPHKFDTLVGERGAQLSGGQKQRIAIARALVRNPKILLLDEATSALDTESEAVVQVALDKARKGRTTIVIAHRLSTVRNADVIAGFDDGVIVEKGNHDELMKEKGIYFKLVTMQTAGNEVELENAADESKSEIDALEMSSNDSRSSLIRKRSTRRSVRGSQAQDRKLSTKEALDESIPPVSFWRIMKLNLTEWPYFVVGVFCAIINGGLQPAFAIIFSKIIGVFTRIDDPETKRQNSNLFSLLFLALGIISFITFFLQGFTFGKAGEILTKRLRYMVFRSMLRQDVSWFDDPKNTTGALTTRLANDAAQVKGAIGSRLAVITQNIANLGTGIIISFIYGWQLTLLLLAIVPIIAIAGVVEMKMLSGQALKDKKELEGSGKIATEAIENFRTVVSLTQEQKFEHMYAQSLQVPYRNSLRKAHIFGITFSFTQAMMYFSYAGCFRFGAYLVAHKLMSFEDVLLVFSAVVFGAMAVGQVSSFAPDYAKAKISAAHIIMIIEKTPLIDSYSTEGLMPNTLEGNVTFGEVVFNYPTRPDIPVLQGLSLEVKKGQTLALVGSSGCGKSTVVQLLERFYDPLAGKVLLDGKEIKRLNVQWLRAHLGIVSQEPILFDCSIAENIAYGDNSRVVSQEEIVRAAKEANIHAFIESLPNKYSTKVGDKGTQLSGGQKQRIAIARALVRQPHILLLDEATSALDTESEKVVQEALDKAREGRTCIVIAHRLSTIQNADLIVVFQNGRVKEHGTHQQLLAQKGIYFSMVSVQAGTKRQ

[18] = target: T1, ABCG2; assay: Vi-sensitive ATPase activity of ABCG2; assay type: biochemical
[19] = tested on: ABCC1; assay type: cell-based, human; settings: CORL-23/R; 0.3 µM-10 µM, 72 h
[20] = tested on: BRAF kinase; assay: BRAF kinase activity in A375 and A375-G2 cells; assay type: cell-based, human; settings: 0.2 – 5.0 µM, 4 h
[21] = tested on: ABCG2; settings: 2 µM; ABCG2-overexpressing HEK293, MCF7-FLV1000, MCF7-AdVp3000 and S1-M1-80
[22] = tested on: ABCB1; settings: KBV-1; 0.3 µM-10 µM, 72 h
[23] = tested on: KBV-1 cells; assay: cells; settings: Homo sapiens, KB-V1
[24] = tested on: ABCG2; settings: MCF7-FLV1000; 0.3 µM-10 µM, 72 h
[25] = tested on: CORL-23/R cells; assay: cells; settings: Homo sapiens, COR-L23/R
[26] = tested on: MCF7-FLV1000 cells; assay: cells; settings: Homo sapiens, MCF-7 FLV1000
[27] = tested on: MCF7-AdVp3000 cells; assay: cells; settings: Homo sapiens
[28] = tested on: S1-M1-80 cells; assay: cells; settings: Homo sapiens
[29] = target: T2, ABCB1; assay: cell-based
[30] = target: T1, ABCG2; assay: biochemical
[31] = target: T2, ABCB1; assay: ABCB1-mediated calcein-AM efflux, flow cytometry; settings: 2 µM, MDR19-HEK293 and KBV-1
[32] = target: ABCG2 (R482G) (Homo sapiens, UniProt Q9UNQ0, R482G); assay: ABCG2-mediated mitoxantrone efflux, flow cytometry, S1-M1-80
ABCG2 (R482G), sequence (Q9UNQ0 whole entry R482G): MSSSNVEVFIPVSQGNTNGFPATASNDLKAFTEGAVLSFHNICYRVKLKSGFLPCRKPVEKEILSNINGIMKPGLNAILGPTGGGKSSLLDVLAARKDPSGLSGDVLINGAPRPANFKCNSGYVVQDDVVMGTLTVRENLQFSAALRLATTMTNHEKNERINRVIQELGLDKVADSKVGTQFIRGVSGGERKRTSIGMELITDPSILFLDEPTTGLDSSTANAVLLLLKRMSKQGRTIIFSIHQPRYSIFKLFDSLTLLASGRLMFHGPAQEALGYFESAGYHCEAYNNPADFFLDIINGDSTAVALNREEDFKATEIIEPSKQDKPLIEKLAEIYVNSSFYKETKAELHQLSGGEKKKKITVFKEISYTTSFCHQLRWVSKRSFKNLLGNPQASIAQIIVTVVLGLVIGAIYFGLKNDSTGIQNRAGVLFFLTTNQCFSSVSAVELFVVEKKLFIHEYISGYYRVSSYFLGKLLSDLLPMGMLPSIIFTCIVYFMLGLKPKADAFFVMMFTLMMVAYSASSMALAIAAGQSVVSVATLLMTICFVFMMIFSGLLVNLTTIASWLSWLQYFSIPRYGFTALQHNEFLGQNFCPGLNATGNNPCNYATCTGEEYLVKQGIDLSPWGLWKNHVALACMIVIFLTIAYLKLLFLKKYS

[33] = target: ABCG2 (wild type R482) (Homo sapiens, UniProt Q9UNQ0); assay: ABCG2-mediated mitoxantrone efflux, flow cytometry, MCF7-FLV1000
[34] = target: ABCG2 (R482T) (Homo sapiens, UniProt Q9UNQ0, R482T); assay: ABCG2-mediated mitoxantrone efflux, flow cytometry, MCF7-AdVp3000
ABCG2 (R482T), sequence (Q9UNQ0 whole entry R482T): as the sequence (Q9UNQ0 whole entry R482G) above, with G482T counted along it

[35] = target: T2, ABCB1; assay: [125I]IAAP photoaffinity labeling of ABCB1
[36] = doxorubicin + treatment at 1 µM

SMILES: COc1cccc2c1C(=O)c1c(O)c3c(c(O)c1C2=O)C[C@@](O)(C(=O)CO)C[C@@H]3O[C@H]1C[C@H](N)[C@H](O)[C@H](C)O1 [Doxorubicin]
IC50 [1]: 18.5 ± 8.31 nM
IC50 [2]: 594 ± 78 nM
R.R (relative resistance) ([3]; IC50 MDR19-HEK293 / IC50 pcDNA-HEK293, drug alone): 32

IC50 [5]: 34900 ± 4030 nM
SMILES: COc1cc([C@@H]2c3cc4c(cc3[C@@H](O[C@@H]3O[C@@H]5CO[C@@H](C)O[C@H]5[C@H](O)[C@H]3O)[C@H]3COC(=O)[C@H]23)OCO4)cc(OC)c1O [Etoposide]
IC50 [1]: 217 ± 72 nM
R.R (relative resistance) ([4]; IC50 MRP1-HEK293 / IC50 pcDNA-HEK293, drug alone): 161

SMILES: COc1ccc2c3c([nH]c2c1)[C@H](C=C(C)C)N1C(=O)[C@@H]2CCCN2C(=O)[C@@H]1C3 [FTC, Fumitremorgin C]
R.R of mitoxantrone in the presence of the treatment ([6]; A375-G2 / A375, mitoxantrone + treatment at 3 µM): 2
R.R of vemurafenib in the presence of the treatment ([6]; A375-G2 / A375, vemurafenib + treatment at 3 µM): 1
reversal of ABCG2-mediated resistance to vemurafenib ([6]; A375-G2, FTC 3 µM (Table 2)): reversed completely
R.R of mitoxantrone in the presence of the treatment ([7]; R482-HEK293 / pcDNA-HEK293, mitoxantrone + treatment at 3 µM): 5
R.R of topotecan in the presence of the treatment ([7]; R482-HEK293 / pcDNA-HEK293, topotecan + treatment at 3 µM): 3
ABCG2-mediated efflux of pheophorbide A ([8]; A375-G2, 5 µM): inhibited completely

SMILES: O=C1c2c(O)ccc(O)c2C(=O)c2c(NCCNCCO)ccc(NCCNCCO)c21 [Mitoxantrone]
IC50 ([9]; Homo sapiens, A-375, A375, drug alone): 2.35 ± 0.64 nM
fold more resistant, A375-G2 than parental A375 cells [6]: over 6 fold
IC50 [6]: 15 ± 3.48 nM
R.R (relative resistance) ([6]; IC50 A375-G2 / IC50 A375, drug alone): 6
IC50 [1]: 5.3 ± 1.24 nM
IC50 [10]: 178 ± 19 nM
R.R (relative resistance) [7]: 34

SMILES: COc1cc2c(cc1OC)CN(CCc1ccc(NC(=O)c3cc(OC)c(OC)cc3NC(=O)c3cnc4ccccc4c3)cc1)CC2 [Tariquidar]
R.R of doxorubicin in the presence of the treatment [3, 36]: 3

IC50 [10]: 510 ± 94.5 nM
SMILES: CC[C@@]1(O)C(=O)OCc2c1cc1n(c2=O)Cc2cc3c(CN(C)C)c(O)ccc3nc2-1 [Topotecan]
IC50 [1]: 18.3 ± 4.48 nM
R.R (relative resistance) [7]: 28

SMILES: CCCS(=O)(=O)Nc1ccc(F)c(C(=O)c2c[nH]c3ncc(-c4ccc(Cl)cc4)cc23)c1F [Vemurafenib]
IC50 [11]: 14800 ± 4190 nM
IC50 [12]: 8520 ± 1390 nM
IC50 [13]: 53600 ± 9420 nM
IC50 [14]: 13600 ± 3840 nM
IC50 [15]: 118 ± 11 nM
R.R of mitoxantrone in the presence of the treatment ([6]; A375-G2 / A375, mitoxantrone + treatment at 0.02 µM): 2
IC50 [1]: 28100 ± 6930 nM
R.R of doxorubicin in the presence of the treatment [3, 36]: 23
R.R of doxorubicin in the presence of the treatment ([3]; doxorubicin + treatment at 2 µM): 23
effect on accumulation of fluorescent probes in drug sensitive parental cells [16]: no effect
inhibition of ATPase activity ([17]; higher concentrations): ~ 50%
stimulation of ATPase activity above basal level ([17]; lower concentrations): ~ 40%
stimulation of ATPase activity above basal level ([18]; lower concentrations): ~ 95%
effect on ABCC1 protein expression level [19]: no significant effect
inhibitory effect on p-MEK1/2, A375 versus A375-G2 [20]: comparable
levels of total MEK1/2 and ERK1/2 ([20]; A375 and A375-G2): remained unchanged
levels of p-MEK1/2 and p-ERK1/2 ([20]; A375 and A375-G2, concentration-dependent): reduced
R.R of etoposide in the presence of the treatment ([4]; etoposide + treatment at 1 µM): 159
R.R of etoposide in the presence of the treatment ([4]; etoposide + treatment at 2 µM): 165
R.R of etoposide in the presence of the treatment ([4]; etoposide + treatment at 5 µM): 116
ABCG2-mediated efflux of PhA [21]: inhibited significantly
effect on ABCB1 protein expression level [22]: no significant effect
IC50 [23]: 16900 ± 4970 nM
effect on ABCG2 protein expression level [24]: no significant effect
ABCG2-mediated efflux of pheophorbide A [8]: inhibited completely
IC50 [25]: 8540 ± 2250 nM
IC50 [26]: 58700 ± 15800 nM
IC50 [27]: 70000 ± 27400 nM
IC50 [28]: 14700 ± 3020 nM
IC50 [29]: > 50000 nM
IC50 [30]: 570 nM
effect on drug efflux mediated by ABCB1 [31]: no significant effect
IC50 [32]: 2600 nM
IC50 [33]: 1240 nM
IC50 [34]: 4910 nM
IC50 [35]: 4510 nM

Reference: publication PMC3553236 (Biochemical pharmacology, 2012)
